SMILES	melting point
COc1ccccc1CC(=N)N1C[C@@H]2C(=O)CCC(c3ccccc3)(c3ccccc3)[C@@H]2C1	190 °C
CC(C)(C)OC(=O)NC(=N)c1ccc(C(=O)NCCC(=O)OCc2ccccc2)cc1	127 to 128 °C
Cc1ccc(/C=C/c2sccc2S(=O)(=O)Nc2onc(C)c2Br)cc1	101 to 105 °C
CNc1nsnc1-c1c(Cl)cccc1Cl	145 to 146 °C
Cc1[nH]c(=O)ccc1-c1ccc(O)c([N+](=O)[O-])c1	260 to 262 °C
O=C(O)c1ccc(-c2ccc3cc(CCCO)c(C45CC6CC(CC(C6)C4)C5)cc3c2)cc1	268 to 269 °C
COc1ccc(C2CNC(=O)S2)cc1OC (stereo not given)	167 to 169 °C
CSCc1cc([N+](=O)[O-])ccc1N1C(=O)c2ccc(Cl)cc2C1=O	112 to 115 °C
CC(=O)Oc1ccc2c3c1OC1C(OS(=O)(=O)C(F)(F)F)CCC4(O)C(C2)N(C)CCC314 (stereo not given)	125 to 126 °C
O=C1Cc2c(cc3ccccc3c2Cl)C(c2ccccc2F)N1 (stereo not given)	206 to 209 °C
COc1ccc(C2(C#N)CCC(NS(C)(=O)=O)CC2)c2c1oc1ccccc12 (stereo not given)	176 to 178 °C
CCC1NC(C(=O)O)Cc2c1[nH]c1ccccc21 (stereo not given)	236 to 237 °C
COc1cc(C(C)C)c(Oc2cnc(N)nc2N)cc1I	204 to 206 °C
CN(C)CCCn1c(-c2ccccc2)cc2cc(O)ccc21	130 °C
Cc1cccc(-c2c[nH]nc2-c2ccnc(-c3ccc(OCC(=O)N4CCOCC4)cc3)c2)n1	170 °C
CCCCCCCCC(=O)OCc1c(Cl)ccc2cc(Cl)cnc12	92 °C
CS(=O)(=O)Nc1cccc(Nc2nc(OC3CCCC3)c3cc[nH]c3n2)c1	203 to 205 °C
COc1cc2ncc(C#N)c(Nc3ccc(F)c(Cl)c3)c2cc1NC(=O)C=CCN1C(C)CCC1C (stereo not given)	110 to 113 °C
Fc1cc(-c2ncon2)ccc1CBr	87.3 °C
COC1(c2cc(F)cc(Sc3ccc(NC(C)=O)cc3)c2)CCN(CC(F)(F)F)C1 (stereo not given)	127 to 129 °C
O=C(O)CCCCN1CCN2c3ccccc3Sc3ccccc3C2C1 (stereo not given)	226 to 230 °C
CC(=O)N1CCC(c2nccc3occc23)CC1	108 to 110 °C
COc1ccc(CC(=O)NC(=NOCC2CC2)c2c(F)cccc2C(F)(F)F)cc1	75 to 76 °C
CC12CCC(C1)C(C)(C)C2(CCO)SN=O (stereo not given)	81 to 85 °C
CC1(C)Cc2cc(S(=O)(=O)Cl)ccc2O1	75 to 77 °C

SMILES	melting point
CCCC[C@@H](C)[C@@H](O)[C@H](NC)C(=O)O	248 to 249 °C
CN1C(=O)CCc2cccc(N3CCN(CCCCOc4ccc5c(n4)NC(=O)CCC5)CC3)c21	184 to 185 °C
Cc1c(NC(=O)c2ccc(-c3ccc(C(F)(F)F)cc3)cc2F)ccc2cc(CN3CCCC3)cnc12	202 to 203 °C
CCCc1nn(C)c(C(N)=O)c1NC(=O)c1sccc1OCC	103 to 104 °C
COc1ccc(/C=C2/c3cc(OC)c(OC)cc3CCN2C(=O)C2CC2)cc1OC	148 to 151 °C
O=C(NNc1ccc(C(F)(F)F)cc1)c1ccccc1F	163 to 165 °C
COc1c(Br)cc(Br)cc1C1(C#N)CCCCC1	100 to 102 °C
CC(=O)c1ccc(NS(C)(=O)=O)c(C(=O)c2ccc(F)cc2F)c1	114 to 117 °C
CC(C)(Cc1c(Sc2ccccc2)c2cc(-c3ccccc3)ccc2n1Cc1ccc(Cl)cc1)C(=O)O	182 to 183 °C
COC1=Cc2ccccc2C(=CC(=O)O)c2ccsc21	163 to 167 °C
O=C(O)C=C1CCCCC1Cc1ccccc1 (racemic)	98 to 100 °C
N#Cc1cc(-c2nc3cncnc3s2)ccc1Oc1ccc(O)cc1	> 250 °C
COC(=O)C1=Cc2cc(Cl)ccc2OC1	106 to 109 °C
CC(C)(C)OC(=O)N=C(N)N(CCc1ccc(OCCC2Oc3c(Cl)cc(Cl)cc3N(Cc3cccc(Cl)c3)C2=O)cc1)C(=O)OC(C)(C)C (stereo not given)	115 to 117 °C
CC(C)(C)c1cc([PH](=O)c2cc(C(C)(C)C)cc(C(C)(C)C)c2)cc(C(C)(C)C)c1	185 °C
COc1ccc2[nH]cc(/C(C#N)=C/c3cccc(C#N)c3)c2c1	149 °C
N#Cc1ccc(NC2CCN(Cc3cc(F)cc(C(F)(F)F)c3)CC2)nn1	151 °C
COc1ccc(C[C@@H](CO)NC(=O)c2cccnc2Br)cc1OC	136 to 138 °C
CCCOc1ccccc1-c1nc2nc(NCCN(C)C)ncc2c(=O)[nH]1	181 to 182 °C
CCOC(=O)C1=C(COCCNCC(N)=O)NC(C)=C(C(=O)OC)C1c1ccccc1Cl (stereo not given)	126 to 129 °C
CS(=O)(=O)c1ccc(Nc2cc(N3CCOCC3)nc(-c3ccccc3)n2)cc1	238 to 240 °C
Cc1c(Sc2cccnn2)oc2ccc(Cl)cc12	131 to 134 °C
CC(=O)c1ccc(NS(=O)(=O)c2sc3ccc(Cl)cc3c2C)c(S(C)(=O)=O)c1	207 to 209 °C
O=C1CCC(N2Cc3c(OCc4ccc5ncccc5c4)cccc3C2=O)C(=O)N1 (stereo not given)	267 to 269 °C
CC1=CC(C)(C)Cc2c1nc(C(C)C)c(C(C)O)c2-c1ccc(F)cc1 (stereo not given)	117 to 119 °C
